Laboratory results from article PMC10555500, “Evaluation of the Antiproliferative Properties of CpRu Complexes Containing N-Methylated Triazaphosphaadamantane Derivatives” (Bioinorganic Chemistry and Applications, 2023).

Experiments:
[1] = system: MDA-MB-231 breast cancer cells; test: MTT cytotoxicity assay, MDA-MB-231 cells; assay type: cell-based, human; conditions: for IC50: 24 h incubation, MTT, average of at least three experiments (±SD); for Cytotoxicity (in words): MDA-MB-231, MTT, 24 h
Method: (§1) The MDA-MB-231 and MCF-7 human breast cancer cells were purchased from ATCC. The MDA-MB-231 and MCF-7 cells were grown in Dulbecco's modified Eagles' medium (DMEM high glucose) (Capricorn Scientific) at 37°C in 5% CO2 supplemented with 10% fetal bovine serum (Capricorn Scientific). HDF cells were purchased from Merck and were grown in the fibroblast growth medium. All cells were adherent in monolayers and, upon confluence, were washed with phosphate buffer saline (PBS) and harvested by digestion with trypsin-EDTA 0.05% (v/v). The cells were suspended and transferred into new, sterile, culture flasks for maintenance or seeded in sterile test microplates for different assays. All cells were manipulated under aseptic conditions in a flow chamber.
(§2) The cells were adherent in monolayers and, upon confluence, were harvested by digestion with trypsin. The cytotoxicity of the complexes against the tumour cells was assessed using the colorimetric assay MTT […], which evaluates the metabolic activity of viable cells. This assay measures the conversion of yellow tetrazolium into purple formazan by an active mitochondrial dehydrogenase in living cells. For this purpose, the cells (10–20 × 10^3 in 200 μL of the medium) were seeded into 96-well plates and incubated in a 5% CO2 incubator at 37°C. The cells were settled for 24 h followed by the addition of a dilution series of the complexes in a medium (200 μL). The complexes were first solubilized in 100% DMSO, given a 10 mM stock solution, and then in a medium within the concentration range of 0.1–100 µM. […] After 24 h of incubation, the treatment solutions were removed by aspiration, and MTT solution (200 μL, 0.5 mg·mL^−1 in PBS) was added to each well. After 3 h at 37°C/5% CO2, the solution was removed, and the purple formazan crystals formed inside the cells were dissolved in DMSO (200 μL) by thorough shaking. The cellular viability was evaluated by measuring the absorbance at 570 nm by using a microplate spectrophotometer. The IC50 values were obtained by dose-response curves using the GraphPad Prism software (vs. 5).
The MDA-MB-231 and MCF-7 human breast cancer cells were purchased from ATCC. MDA-MB-231 and MCF-7 cells were grown in Dulbecco’s modified Eagles’s medium (DMEM high glucose) (Capricorn Scientific) at 37 °C in 5% CO2 supplemented with 10% fetal bovine serum (Capricorn Scientific). All cells were adherent in monolayers and, upon confluence, were washed with phosphate buffer saline (PBS) and harvested by digestion with Trypsin-EDTA 0.05% (v/v). The cells were suspended and transferred into new, sterile, culture flasks, for maintenance or seeded in sterile test microplates for different assays. All cells were manipulated under aseptic conditions in a flow chamber.
The cells were adherent in monolayers and, upon confluency, were harvested by digestion with trypsin. The cytotoxicity of the complexes against the tumour cells was assessed using the colorimetric assay MTT […], which evaluate the metabolic activity of viable cells. This assay measures the conversion of the yellow tetrazolium into purple formazan by an active mitochondrial dehydrogenase in living cells. For this purpose, cells (10-20 × 10^3 in 200 μL of medium) were seeded into 96-well plates and incubated in a 5% CO2 incubator at 37 °C. The cells were settled for 24 h followed by the addition of a dilution series of the complexes in medium (200 μL). The complexes were first solubilized in 100% DMSO, given a 10 mM stock solution, and then in medium within the concentration range of 0.1–100 µM. […] After 24 h of incubation, the treatment solutions were removed by aspiration, and MTT solution (200 μL, 0.5 mg·mL^-1 in PBS) was added to each well. After 3 h at 37 °C/5% CO2, the solution was removed, and the purple formazan crystals formed inside the cells were dissolved in DMSO (200 μL) by thorough shaking. […]

[2] = Stability in DMSO-d6 and DMSO-d6/D2O monitored by 31P{1H} NMR; assay type: physicochemical; conditions: room temperature and 37°C, 48 h, 31P{1H} NMR
From the text: The assessment of the biological properties of the complexes requires their dissolution in a cell culture medium which is mainly constituted by water. When the complex is not hydrosoluble enough, the used protocol contemplates preliminary dissolution in DMSO before the addition to the culture medium. Thus, it is important to determine the stability and behaviour of the complexes in both DMSO and water/DMSO mixtures to check whether different species have been formed when dissolved. Dissolutions in DMSO-d6 and DMSO-d6/D2O of the new complexes 8 and 11 were monitored by ^31P{^1H} NMR over time at room temperature and 37°C. The stability studies of the rest of the complexes (1‐7, 9, 10) were published previously. All experiments were performed by a similar procedure: the complex (0.01 g) was introduced into a 5 mm NMR tube and dissolved in 0.5 mL of degassed solvent (DMSO-d6 and a 1 : 1 mixture of DMSO-d6/D2O). The solution was left at room temperature and monitored by ^31P{^1H} NMR first every 15 minutes, and later in longer periods. Stability was also monitored at incubation cell-based assay temperature (37°C).
All compounds were studied for their stability in 100% DMSO-d6 and DMSO-d6/D2O mixture by using NMR spectroscopy in common aerobic conditions. All experiments were performed by a similar procedure: the complex (0.01 g) was introduced into a 5 mm NMR tube and dissolved in 0.5 mL of degassed solvent (DMSO-d6 and a 1:1 mixture of DMSO-d6/D2O). The solution was left at room temperature and monitored by ^31P{^1H} NMR first every 15 minutes, and later in longer time periods. Stability was also monitored at incubation cell-based assays temperature (37 °C).

[3] = system: MCF-7 breast cancer cells; test: MTT cytotoxicity assay, MCF-7 cells; assay type: cell-based, human; conditions: 24 h incubation, average of at least three experiments (±SD)
Method: as §1
The cells were adherent in monolayers and, upon confluence, were harvested by digestion with trypsin. The cytotoxicity of the complexes against the tumour cells was assessed using the colorimetric assay MTT […], which evaluates the metabolic activity of viable cells. This assay measures the conversion of yellow tetrazolium into purple formazan by an active mitochondrial dehydrogenase in living cells. For this purpose, the cells (10–20 × 10^3 in 200 μL of the medium) were seeded into 96-well plates and incubated in a 5% CO2 incubator at 37°C. The cells were settled for 24 h followed by the addition of a dilution series of the complexes in a medium (200 μL). The complexes were first solubilized in 100% DMSO, given a 10 mM stock solution, and then in a medium within the concentration range of 0.1–100 µM. […] The cellular viability was evaluated by measuring the absorbance at 570 nm by using a microplate spectrophotometer. […]
The cells were adherent in monolayers and, upon confluency, were harvested by digestion with trypsin. The cytotoxicity of the complexes against the tumour cells was assessed using the colorimetric assay MTT […], which evaluate the metabolic activity of viable cells. […]

[4] = system: normal human fibroblasts (HDF); test: MTT cytotoxicity assay, normal human dermal fibroblasts; assay type: cell-based; conditions: for IC50: 24 h incubation, MTT, normal human fibroblasts; for Fold less cytotoxic for fibroblasts (HDF) than for MCF-7 cells: selectivity HDF vs MCF-7; for Fold less cytotoxic for fibroblasts (HDF) than for MDA-MB-231 cells: selectivity HDF vs MDA-MB-231
Method: as §1, §2

[5] = target: human serum albumin (HSA) (Homo sapiens, UniProt P02768); test: Binding to human serum albumin by steady-state and time-resolved Trp214 fluorescence; conditions: for Emission intensity of Trp214 relative to value in the absence of compound: 20 µM compound (1:4 HSA:compound), 24 h, λem 340 nm; for Type of quenching: HSA-Trp214 fluorescence; for Spectral shift of Trp214 emission: steady-state emission, 24 h incubation; for Effect on amplitude-weighted mean fluorescence lifetime of HSA-Trp214: time-resolved fluorescence, λem 350 nm
Chain of human serum albumin (HSA) (P02768 25-609): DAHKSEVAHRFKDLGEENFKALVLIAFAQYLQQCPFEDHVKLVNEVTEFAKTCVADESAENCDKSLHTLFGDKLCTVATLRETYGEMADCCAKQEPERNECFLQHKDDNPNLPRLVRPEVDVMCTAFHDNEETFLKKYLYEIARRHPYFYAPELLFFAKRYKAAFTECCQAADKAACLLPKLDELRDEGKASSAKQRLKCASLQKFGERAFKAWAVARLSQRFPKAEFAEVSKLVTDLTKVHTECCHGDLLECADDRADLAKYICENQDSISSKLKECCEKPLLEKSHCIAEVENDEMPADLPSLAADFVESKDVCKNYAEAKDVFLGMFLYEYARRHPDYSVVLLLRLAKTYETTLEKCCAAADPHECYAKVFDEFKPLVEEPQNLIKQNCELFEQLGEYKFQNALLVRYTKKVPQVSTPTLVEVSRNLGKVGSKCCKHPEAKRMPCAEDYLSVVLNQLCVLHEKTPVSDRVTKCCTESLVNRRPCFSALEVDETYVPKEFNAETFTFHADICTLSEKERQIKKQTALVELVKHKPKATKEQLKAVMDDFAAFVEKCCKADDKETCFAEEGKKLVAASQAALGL
Method: (§3) The stock solutions of HSA were freshly prepared for each experiment by gently dissolving protein in PBS pH 7.4 (tablets from Fisher) for 1 hour to allow protein to completely hydrate. The concentration of the protein in the stock solutions was determined by spectrophotometry using the molar absorption coefficient at 280 nm ε280(HSA) = 36,850 M^−1·cm^−1 [38].
In each essay, all spectroscopic measurements were carried out on individually prepared samples to ensure the same preincubation time at (37.0 ± 0.1)°C, the same % of DMSO in the final samples, and the same exposure to excitation light and to avoid the need for dilution corrections. Moreover, for a direct titration protocol, a highly concentrated stock solution of the compounds in the buffer would be required, which would raise solubility issues. Dimethylsulfoxide (DMSO, from Fisher) was used to prepare concentrated stock solutions of each complex, followed by appropriate dilution to obtain the desired concentration. The DMSO content was kept at 2% (v/v) in PBS pH 7.4 in all samples. Dilutions were carried out immediately before sample preparation.
Fluorescence measurements were performed at 25.0 ± 0.1°C. The final protein concentration in the individually prepared samples (3.72 to 5 μM) was kept constant in each assay, and the complex concentration was varied to obtain desired HSA: Ru-complex molar ratios ranging from 1 : 0.25 to 1 : 10. A control sample containing the same amount of protein and final DMSO content and with no complex was also prepared for each experiment. Appropriate blank samples with no protein but with the same complex concentrations were prepared as well for background correction.
The steady-state fluorescence intensity was measured with excitation at 295 nm, and emission spectra were collected with bandwidths of 4 nm for both excitation and emission. For Stern–Volmer plots, the fluorescence intensity with emission at 340 nm was selected because it is near the maximum emission wavelength (so the sensitivity is close to maximum), but it is further to red in relation to the water Raman scattering peak. These values were corrected for the absorption and emission inner filter effects using the absorbance recorded for each sample at the excitation and emission wavelengths used for the steady-state quenching analysis. For time-resolved fluorescence measurements, the single-photon-counting technique was used with nanoLED N-280 (Horiba Jobin Yvon) as the pulsed excitation source (280 nm) and with emission collected at 350 nm (13 nm emission bandwidth), eliminating the contribution of the emission by tyrosine residues.
The experimental fluorescence intensity decays of HSA in buffer solution can be described by a sum of exponentials:(1) It=∑i=1npiexp−t/τi, where pi and τi are the pre-exponential factors and lifetime of component i, respectively. The amplitude or normalized pre-exponential of each lifetime component αi is pi/Σipi with Σiαi = 1. Fluorescence decays were analysed by an iterative deconvolution method using the TRFA Data Processor software (version 1.4; Minsk, Belarus), and the instrument response function was obtained using scattering by a colloidal suspension of silica (Ludox®, Sigma-Aldrich) diluted in water. Criteria for judging the quality of the fit were reduced χ^2 close to 1 and a random distribution of weighted residuals and residual autocorrelation.
To evaluate changes in the quantum yield by processes affecting the fluorescence lifetimes of HSA, the amplitude-weighted mean fluorescence lifetime ( τ¯ ) was calculated using the following equation:(2) τ¯=∑i=1nαiτi.
as §3, with “dissolving the” for “dissolving”, “allow the” for “allow”, “of” for “of the”, “M^−1 cm^−1.[8] […]” for “M^−1·cm^−1 [38].”

CN1CN2C[NH+](C)C[P]([Ru+]([Cl])[P](c3ccccc3)(c3ccccc3)c3ccccc3)(C1)C2.O=S(=O)([O-])C(F)(F)F.c1cc[cH-]c1 [Compound 7, [RuClCp(HdmoPTA)(PPh3)](CF3SO3)]
IC50 [1]: 2.5 ± 1.1 µM | Fold increase in antiproliferative activity with respect to complex 6 ([1]; MDA-MB-231, 24 h): 4 fold

CN1CN2C[NH+](C)C[P]([Ru+2]([P](c3ccccc3)(c3ccccc3)c3ccccc3)[S](C)(C)=O)(C1)C2.O=S(=O)([O-])C(F)(F)F.O=S(=O)([O-])C(F)(F)F.c1cc[cH-]c1 [Compound 8, [RuCp(DMSO-κS)(HdmoPTA)(PPh3)](CF3SO3)2]
IC50 [1]: 15 ± 2.2 µM | Stability in DMSO-d6 [2]: stable | Stability in DMSO-d6/D2O (1:1) [2]: stable

CN1CN2CN(C)C[P]([Ru+2]([P](c3ccccc3)(c3ccccc3)c3ccccc3)[P](c3ccccc3)(c3ccccc3)c3ccccc3)(C1)C2.O=S(=O)([O-])C(F)(F)F.c1cc[cH-]c1 [Compound 10, [RuCp(dmoPTA)(PPh3)2](CF3SO3)]
IC50 [1]: 0.84 ± 0.09 µM | IC50 [3]: 0.4 ± 0.04 µM | IC50 [4]: 1.47 ± 0.4 µM | Fold less cytotoxic for fibroblasts (HDF) than for MCF-7 cells [4]: 2-3 fold | Fold less cytotoxic for fibroblasts (HDF) than for MDA-MB-231 cells [4]: 1.5 fold | Emission intensity of Trp214 relative to value in the absence of compound [5]: ~75% | Type of quenching [5]: Static | Spectral shift of Trp214 emission [5]: do not induce any spectral shift | Effect on amplitude-weighted mean fluorescence lifetime of HSA-Trp214 [5]: does not affect

C[N+]12CN3CN(C1)C[P]([Ru+]([Cl])[P](c1ccccc1)(c1ccccc1)c1ccccc1)(C3)C2.O=S(=O)([O-])C(F)(F)F.c1cc[cH-]c1 [Compound 6, [RuClCp(PPh3)(mPTA)](CF3SO3)]
IC50 [1]: 8.3 ± 1.4 µM | Fold increase in cytotoxicity with respect to complex 5 ([1]; MDA-MB-231, 24 h): 7 fold

CN1CN2C[NH+](C)C[P]([Ru+2]([P](c3ccccc3)(c3ccccc3)c3ccccc3)[P](c3ccccc3)(c3ccccc3)c3ccccc3)(C1)C2.O=S(=O)([O-])C(F)(F)F.O=S(=O)([O-])C(F)(F)F.c1cc[cH-]c1 [Compound 9, [RuCp(HdmoPTA)(PPh3)2](CF3SO3)2]
IC50 [1]: 0.86 ± 0.13 µM | IC50 [3]: 0.48 ± 0.07 µM | IC50 [4]: 1.23 ± 0.32 µM | Fold less cytotoxic for fibroblasts (HDF) than for MCF-7 cells [4]: 2-3 fold | Fold less cytotoxic for fibroblasts (HDF) than for MDA-MB-231 cells [4]: 1.5 fold | Emission intensity of Trp214 relative to value in the absence of compound [5]: approximately 60% | Type of quenching [5]: Static | Spectral shift of Trp214 emission [5]: do not induce any spectral shift | Effect on amplitude-weighted mean fluorescence lifetime of HSA-Trp214 [5]: does not affect

C[N+]12CN3CP(C1)C[N+](C)(C3)C2 [Compound 3, N,N′-dimethyl-1,3,5-triaza-7-phosphaadamantane]
IC50 ([1]; Homo sapiens, MDA-MB-231): > 100 µM

C1N2CN3CN1CP(C2)C3 [Compound 1, 1,3,5-triaza-7-phosphaadamantane]
IC50 ([1]; Homo sapiens, MDA-MB-231): > 100 µM

[Cl][Ru+]([P]12CN3CN(CN(C3)C1)C2)[P](c1ccccc1)(c1ccccc1)c1ccccc1.c1cc[cH-]c1 [Compound 5, [RuClCp(PPh3)(PTA)]]
IC50 [1]: 60 ± 19 µM | Cytotoxicity (in words) [1]: Moderate cytotoxicity

[Cl][Ru+]([P]12CN3CN(CN(C3)C1)C2)[P]12CN3CN(CN(C3)C1)C2.c1cc[cH-]c1 [Compound 4, [RuClCp(PTA)2]]
IC50 [1]: > 100 µM | Cytotoxicity (in words) [1]: noncytotoxic

C[N+]12CN3CN(CP(C3)C1)C2 [Compound 2, N-methyl-1,3,5-triaza-7-phosphaadamantane]
IC50 ([1]; Homo sapiens, MDA-MB-231): > 100 µM
